Counter-ions that a name gives are not always drawn. Like-named read-outs stand apart in the source and are kept apart here. Where only a bound is given, the exact number is not on record here.

45 molecules from patent US6518423B1, “Benzopiperidine derivatives” (Eisai Co., Ltd., priority 1996, dated 2003) can be followed below.

Data set [1] relates to Carrageenin-induced Rat Pleurisy. As to the kind of experiment: Effect on carrageenin-induced rat pleurisy. The class given is in vivo. As to conditions: total cell count in pleural exudate 5 hours after carrageenin, dose 10 mg/kg orally 30 minutes before carrageenin; for inhibition in vivo at 10 mg/kg: Rattus norvegicus, po, 5 h, read-out: Inhibitory ratio (%); for Inhibitory ratio (%): 10 mg/kg. The protocol: Effect on Carrageenin-induced Rat Pleurisy
200 μl of a carrageenin solution (10 mg/ml in physiological saline) was intrathoracically injected into rats. Five hours thereafter, blood of the animals was collected from the abdominal aorta under etherization so as to induce death from blood loss. The exudate was taken up from the thoracic cavity and weighed with a single-pan balance. Further, the exudate was diluted with Turk's solution and the cells were counted by using a counting chamber. Next the total cell count was calculated by multiplying the cell count by the exudate volume. Thus the inhibitory ratio was calculated by taking the total cell count with the administration of carrageenin as 100% and that with the administration of physiological saline as 0%. Each test compound was suspended in a 0.5% solution of methylcellulose and orally administered at a dose of 5 ml/kg 30 minutes before the injection of carrageenin.

The next data set relates to ICAM-1. As to the kind of experiment: Effect on the expression of ICAM-1 in human cultured umbilical cord endothelial cells (TNF-stimulated, ELISA). The class given is cell-based. As to conditions: 1 ng/ml TNF, expression with TNF = 100%, without TNF = 0%, read-out: IC50 (50% inhibitory concentration of ICAM-1 expression). The protocol:
Effect on the Expression of ICAM-1 in Human Cultured Umbilical Cord Endothelial Cells
Examination was made on the effect on the expression of ICAM-1 which is one of adhesion molecules expressed on the surfaces of cultured endothelia cells. The endotheliall cells were suspended in an MCDB131 medium containing 10% of fetal calf serum and pipetted into a 96-well culture plate (10,000 cells/well). After culturing at 37° C. in the presence of 5% of carbon dioxide for 2 days, 1 ng/ml of a tumor necrosis factor (TNF) and a test compound were added to the 96-well culture plate. After culturing at 37° C. in the presence of 5% of carbon dioxide for 4 hours and then washing with a phosphate buffer once, 0.05% of glutaraldehyde was added thereto. Six minutes thereafter, the plate was washed twice and 1 μg/ml of a mouse antihuman ICAM-1 antibody was added thereto. After allowing to stand for 1 hour, it was washed twice and a peroxidase-labeled sheep antimouse immunoglobulin antibody was added thereto. After allowing to stand for 1 hour, it was washed twice and a color developing substrate for peroxidase (o-phenylenediamine) was added thereto. After allowing to stand at room temperature for 10 minutes, a 1 N solution of sulfuric acid was added thereto. Then the absorbance at 490 nm was measured with the use of an absorptiometer for 96-well plate. The value thus obtained was employed as an indication of the ICAM-1 expression.

[2] abbreviates: Homo sapiens, Endothelial cell, 4 h.

For `O=C(O)CCNC(=O)Cc1ccc2c(c1)Nc1nccnc1S2`, the melting point fell in the range of 220 to 225 °C.
Still for that read-out and setting: for `OCCCc1ncnc2c1ncn2Cc1ccc2c(c1)Nc1nccnc1S2` the value was 174 to 177 °C; for `N#CN=CNCc1ccc2c(c1)Nc1nccnc1S2`, 224 to 226 °C.
Still for that read-out and setting: the result for `NCc1ncnc2c1ncn2Cc1ccc2c(c1)Nc1nccnc1S2` (as salt: oxalate) reads 97 to 104 °C (dec.); that for `COC(=O)c1ccc(-c2cn(Cc3ccc4c(c3)Nc3nccnc3S4)cn2)cc1` (as salt: trifluoroacetate), 161 to 162 °C.
On the same count and under the same terms, the result for `Cl.O[C@@H]1CN(Cc2ccc3c(c2)Nc2nccnc2S3)C[C@H]1O` (relative stereo) reads 241 to 242 °C (dec.).
In the case of `O=C(O)CC1CC2CN(Cc3ccc4c(c3)Nc3nccnc3S4)CC2C1` (stereo not drawn) [711], the melting point was in the range of 112 to 117 °C.
On the same count and under the same terms, the result for `O=C(O)CC1CC2CN(Cc3ccc4c(c3)Nc3nccnc3S4)CC2C1` (stereo not drawn) [714] reads 110 to 115 °C; that for `CC(C)(CCCN1CCN(Cc2ccc3c(c2)Nc2nccnc2S3)CC1)C(=O)O` [750], 240 to 242 °C.
`CC(C)(CCCN1CCN(Cc2ccc3c(c2)Nc2nccnc2S3)CC1)C(=O)O` [751]: the melting point is > 275 °C.
For `O=C(O)CC1C2CCCC1CN(Cc1ccc3c(c1)Nc1nccnc1S3)C2` (stereo not drawn) [Example 15, (syn)-[3-(10H-Pyrazino[2,3-b][1,4]benzothiazin-8-ylmethyl)-3-azabicyclo[3.3.1]non-9-yl]acetic acid], in data set [1], the inhibition in vivo at 10 mg/kg was found to be 64%. In addition, in the data set with ICAM-1 (4 hours), the IC50 worked out at 2300 nM.
As to `CCOC(=O)CC1C2CCCC1CN(Cc1ccc3c(c1)Nc1nccnc1S3)C2` (stereo not drawn) [Example 17], the melting point was 142 to 143 °C.
On to `O=C(O)CC1C2CCCC1CN(Cc1ccc3c(c1)Nc1nccnc1S3)C2` (stereo not drawn) [Example 18, (anti)-[3-(10H-Pyrazino[2,3-b][1,4]benzothiazin-8-ylmethyl)-3-azabicyclo[3.3.1]non-9-yl]acetic acid], for which the “Inhibitory ratio (%)” value in data set [1] is reported as 67%. The IC50 in the data set on ICAM-1 (4 hours) was found to be 3500 nM.
`CC1C(C)C2CN(Cc3ccc4c(c3)Nc3nccnc3S4)CC1C2CC(=O)O` (stereo not drawn) [Example 23, (+)-(anti)-(6R*,7R*)-[3-(10H-Pyrazino[2,3-b][1,4]benzothiazin-8-ylmethyl)-6,7-dimethyl-3-azabicyclo[3.2.1]oct-8-yl]acetic acid]: in data set [1], the inhibition in vivo at 10 mg/kg stood at 52%. Besides, the IC50 in the data set with ICAM-1 (4 hours) amounted to 1600 nM.
`CC1C(C)C2CN(Cc3ccc4c(c3)Nc3nccnc3S4)CC1C2CC(=O)O` (stereo not drawn) [Example 24, (−)-(anti)-(6R*,7R*)-[3-(10H-Pyrazino[2,3-b][1,4]benzothiazin-8-ylmethyl)-6,7-dimethyl-3-azabicyclo[3.2.1]oct-8-yl]acetic acid]: the “Inhibitory ratio (%)” value in data set [1] turned out to be 54%. Moreover, the IC50 in the data set on ICAM-1 (4 hours) is 4100 nM.
For `CC1CC(C)C2CN(Cc3ccc4c(c3)Nc3nccnc3S4)CC1C2C(C)C(=O)O` (stereo not drawn) [Example 30, (+)-(anti)-(6R*,8R*)-2-[3-(10H-pyrazino[2,3-b][1,4]benzothiazin-8-ylmethyl)-6,8-dimethyl-3-azabicyclo[3.3.1]non-9-yl]propanoic acid] the same measures were 85% and 500 nM.
For `CC1CC(C)C2CN(Cc3ccc4c(c3)Nc3nccnc3S4)CC1C2C(C)C(=O)O` (stereo not drawn) [Example 31, (−)-(anti)-(6R*,8R*)-2-[3-(10H-pyrazino[2,3-b][1,4]benzothiazin-8-ylmethyl)-6,8-dimethyl-3-azabicyclo[3.3.1]non-9-yl]propanoic acid], the “Inhibitory ratio (%)” value in data set [1] amounted to 38%. Further, in the data set on ICAM-1 (4 hours), the IC50 was determined as 1100 nM.
Consider `O=C(O)C=C1C2CCC1CN(Cc1ccc3c(c1)Nc1nccnc1S3)C2` [Example 70], for which the melting point fell in the range of 268 to 271 °C. For the same molecule, in the data set with ICAM-1 (setting [2]), the IC50 was 2800 nM.
Regarding `O=C(O)CC1C2CCC1CN(Cc1ccc3c(c1)Nc1nccnc1S3)C2` (stereo not drawn) [Example 71], the inhibition in vivo at 10 mg/kg in data set [1] worked out at 94%. The IC50 in the data set with ICAM-1 (setting [2]) worked out at 800 nM.
For `O=C(O)C1C2CCC1CN(Cc1ccc3c(c1)Nc1nccnc1S3)C2` (stereo not drawn) [Example 73] the same measures were 74% and 600 nM.
Turning to `O=C(O)C1C2CCCC1CN(Cc1ccc3c(c1)Nc1nccnc1S3)C2` (stereo not drawn) [Example 74], the melting point was in the range of 272 to 275 °C. The IC50 with ICAM-1 (setting [2]) stood at 1900 nM.
For `CC(C)(C)C1CC2CN(Cc3ccc4c(c3)Nc3nccnc3S4)CC(C1)C2CC(=O)O` (stereo not drawn) [Example 77], in that order: 138 to 140 °C and 2800 nM.
In turn, `CC1CC2CN(Cc3ccc4c(c3)Nc3nccnc3S4)CC(C1)C2CC(=O)O` (stereo not drawn) [Example 78] returned a melting point of 142 to 146 °C.
For `CC1CC(C)C2CN(Cc3ccc4c(c3)Nc3nccnc3S4)CC1C2CC(=O)O` (stereo not drawn) [Example 79], the inhibition in vivo at 10 mg/kg in data set [1] was 44%.
`O=C(O)CC1C2CCCCC1CN(Cc1ccc3c(c1)Nc1nccnc1S3)C2` (stereo not drawn) [Example 80]: the melting point fell in the range of 217 to 218 °C. Further, in the data set with ICAM-1 (setting [2]), the IC50 stood at 4100 nM.
Regarding `CC(C(=O)O)C1C2CCCC1CN(Cc1ccc3c(c1)Nc1nccnc1S3)C2` (stereo not drawn) [Example 82], in the data set with ICAM-1 (setting [2]), the IC50 came out at 3400 nM.
As for `CC(C(=O)O)C1C2CCCC1CN(Cc1ccc3c(c1)Nc1nccnc1S3)C2` (stereo not drawn) [Example 83], the inhibition in vivo at 10 mg/kg in data set [1] came out at 34%. The IC50 in the data set on ICAM-1 (4 hours) stood at 2800 nM.
For `O=C(O)CC1C2CN(Cc3ccc4c(c3)Nc3nccnc3S4)CC1C21CCC1` (stereo not drawn) [Example 85], the melting point is 175 to 180 °C. The IC50 in the data set with ICAM-1 (setting [2]) is 6400 nM.
On to `O=C(O)CC1C2CN(Cc3ccc4c(c3)Nc3nccnc3S4)CC1C21CCC1` (stereo not drawn) [Example 86], for which the melting point fell in the range of 90 to 92 °C.
Molecule `O=C(O)CC1C2CC(c3ccccc3)CC1CN(Cc1ccc3c(c1)Nc1nccnc1S3)C2` (stereo not drawn) [Example 87] registered a melting point of 128 to 131 °C. The IC50 with ICAM-1 (setting [2]) was 2900 nM.
Turning to `CC1C(C)C2CN(Cc3ccc4c(c3)Nc3nccnc3S4)CC1C2CC(=O)O` (stereo not drawn) [Example 89], in data set [1], the inhibition in vivo at 10 mg/kg is 83%. Further, in the data set on ICAM-1 (setting [2]), the IC50 came to 2800 nM.
The molecule `O=C(O)C12CCCC(CN(Cc3ccc4c(c3)Nc3nccnc3S4)C1)C2` (stereo not drawn) [Example 90] yielded a melting point of 186 to 188 °C. The IC50 in the data set on ICAM-1 (setting [2]) amounted to 2800 nM.
For the molecule `CC1CCC2CN(Cc3ccc4c(c3)Nc3nccnc3S4)CC1C2CC(=O)O` (stereo not drawn) [Example 91], the inhibition in vivo at 10 mg/kg in data set [1] worked out at 76%. Further, the IC50 in the data set with ICAM-1 (setting [2]) was determined as 2900 nM.
For `O=C(O)C1CC2CC(C1)CN(Cc1ccc3c(c1)Nc1nccnc1S3)C2` (stereo not drawn) [Example 98] the same measures were 30% and 2400 nM.
For `CC(CCC1C2CN(Cc3ccc4c(c3)Nc3nccnc3S4)CC1C(C)CC2C)C(=O)O` (stereo not drawn) [Example 100], the melting point was in the range of 110 to 115 °C. Besides, the IC50 in the data set with ICAM-1 (setting [2]) was found to be 3800 nM.
For `CC1CC(C)C2CN(Cc3ccc4c(c3)Nc3nccnc3S4)CC1C2CCCC(=O)O` (stereo not drawn) [Example 102] the same measures were 98 to 105 °C and 2600 nM.
As for `COC1(CC(=O)O)C2CCCC1CN(Cc1ccc3c(c1)Nc1nccnc1S3)C2` (stereo not drawn) [Example 103], the melting point is 217 to 219 °C. The IC50 with ICAM-1 (setting [2]) is 6600 nM.
For `O=C(O)CC12CCCC(CN(Cc3ccc4c(c3)Nc3nccnc3S4)C1)C2` (stereo not drawn) [Example 104] the same measures were 215 to 217 °C and 2800 nM.
Regarding `COC1(CC(=O)O)C2CCCC1CN(Cc1ccc3c(c1)Nc1nccnc1S3)C2` (stereo not drawn) [Example 105], the melting point lay in the range of 225 to 228 °C. In addition, in the data set with ICAM-1 (4 hours), the IC50 is 5800 nM.
Regarding `CC1(C(=O)O)C2CCCC1CN(Cc1ccc3c(c1)Nc1nccnc1S3)C2` (stereo not drawn) [Example 113], the melting point fell in the range of 264 to 265 °C. Further, the IC50 with ICAM-1 (setting [2]) stood at 2500 nM.
In turn, `CC1(C(=O)O)C2CCCC1CN(Cc1ccc3c(c1)Nc1nccnc1S3)C2` (stereo not drawn) [Example 116] gave a melting point of 183 to 185 °C.
`O=C(O)C=C1CC2CCC(C1)N2Cc1ccc2c(c1)Nc1nccnc1S2` [Example 118]: the melting point lay in the range of 206 to 208 °C. In addition, in the data set on ICAM-1 (setting [2]), the IC50 amounted to 1600 nM.
Turning to `OC1C2CCCC1CN(Cc1ccc3c(c1)Nc1nccnc1S3)C2` (stereo not drawn) [Example 126], the melting point fell in the range of 215 to 219 °C.
On the same count and under the same terms, the result for `OC1C2CCCC1CN(Cc1ccc3c(c1)Nc1nccnc1S3)C2` (stereo not drawn) [Example 127] reads 189 to 192 °C.
As for `CNc1ncnc2c1ncn2Cc1ccc2c(c1)Nc1nccnc1S2` [Example 1409], the melting point is 279 to 281 °C. Besides, the IC50 in the data set with ICAM-1 (setting [2]) came out at 670 nM.
